Test results reported in paper PMC8452690, “Structural basis for small molecule targeting of Doublecortin Like Kinase 1 with DCLK1-IN-1” (Communications Biology, 2021).
Read-outs that look alike come from different tables or passages of the source. Marks after values point to notes of the source that are not given here.

Legend:
DCLK1-FL1Δ WT [1] = target: T1, DCLK1-FL1Δ WT (Homo sapiens, UniProt O15075); test: Thermal shift stability assay, DCLK1-FL1Δ WT; format: binding; details: phosphorylated WT, 2.5-40 μM
T1 sequence (O15075 50-686 isoform O15075-2): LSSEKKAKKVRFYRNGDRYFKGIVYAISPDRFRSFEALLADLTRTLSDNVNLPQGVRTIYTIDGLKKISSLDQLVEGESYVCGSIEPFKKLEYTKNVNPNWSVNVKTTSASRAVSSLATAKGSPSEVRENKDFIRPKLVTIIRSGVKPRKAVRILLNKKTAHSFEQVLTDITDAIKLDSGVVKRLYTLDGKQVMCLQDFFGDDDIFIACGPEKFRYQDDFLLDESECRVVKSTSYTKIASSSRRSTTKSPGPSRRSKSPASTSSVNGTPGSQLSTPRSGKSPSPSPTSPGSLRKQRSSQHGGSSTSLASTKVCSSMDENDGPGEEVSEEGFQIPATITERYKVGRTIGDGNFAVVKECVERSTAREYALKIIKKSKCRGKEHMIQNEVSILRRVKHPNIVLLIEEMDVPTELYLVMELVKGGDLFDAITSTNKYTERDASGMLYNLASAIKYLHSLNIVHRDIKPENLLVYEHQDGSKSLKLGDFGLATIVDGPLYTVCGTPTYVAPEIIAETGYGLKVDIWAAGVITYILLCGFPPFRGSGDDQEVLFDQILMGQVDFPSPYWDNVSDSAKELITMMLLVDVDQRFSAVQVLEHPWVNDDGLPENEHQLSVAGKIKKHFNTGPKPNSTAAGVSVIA
Method: DCLK1 proteins were diluted in 150 mM NaCl, 20 mM Tris pH 8.0, 1 mM DTT to […] final concentration and assayed with the appropriate concentration of inhibitor in a total reaction volume of 25 μL. SYPRO Orange (Molecular Probes) was used as a fluorescence probe and detected at 530 nm. The data shown are representative of two independent experiments.

DCLK1-FL1Δ WT [2] = target: T1, DCLK1-FL1Δ WT; test: SPR binding to immobilised DCLK1-FL1Δ WT (phosphorylated); details: for Kd: SPR, 18 °C, DCLK1 FL1Δ WT immobilised, mean ± SEM
Method: SPR studies were carried out on a Biacore 2000 instrument (Cytivia). Proteins were immobilised at 25 °C using standard amine coupling to a CM5 chip (Cytivia) in immobilisation buffer consisting of 10 mM HEPES pH 7.4, 150 mM NaCl, 1 mM TCEP, 0.005% Tween P20, 1% (v/v) DMSO. To the active flow, cells were coupled either DCLK1-FL1Δ D511N or WT to a final density of approximately 7000 RU, followed by surface deactivation with 1 M ethanolamine. For each protein, coupling was performed at a concentration of 2 µM protein in 10 mM sodium acetate buffer pH 4.0, 1% (v/v) DMSO final, in the presence 10 µM of the moderate affinity compound FMF-03-149-01 (IC50 ~400 nM)[28] to help to stabilise the kinase domain during immobilsiation at low pH. A blank immobilisation was performed on the reference flow cell.
Binding experiments were performed at 18 °C in running buffer consisting of 20 mM HEPES, pH 7.4, 150 mM NaCl, 1 mM tris(2-carboxyethyl)phosphine (TCEP), 0.005% (v/v) Tween-P20, and 2% (v/v) DMSO. Compounds (10 mM stocks in 100% DMSO) were diluted in DMSO to 500 µM (DCLK1-NEG) or 25 µM (all other compounds) then in running buffer (without DMSO) to achieve the starting concentration with a final DMSO concentration of 2% (v/v). Samples were then serially titrated in running buffer containing 2% (v/v) DMSO to prepare each final concentration series (seven-point, three-fold serial dilution, 10 µM−13.7 nM for DCLK1-NEG, or 500−0.68 nM for all other compounds). Solutions were injected in multi-cycle format (in duplicate) without regeneration (contact time 80 s, flow rate 75 μL/min, dissociation time 600 s), with an extra wash (50% DMSO) after each injection.
Steady-state/kinetic binding data were fitted using the S200 BIAevaluation software (GE Healthcare). Sensorgrams from reference surfaces and blank injections were subtracted from the raw data (double-referencing), followed by solvent correction. Kinetic rate constants (kon and koff values) were obtained by fitting to 1:1 Langmuir binding model. Reported binding data represent mean ± SEM for three or four independent experiments. The dissociative half-life life (t1/2) for each inhibitor complex with DCLK1 was calculated from the fitted dissociation rate constant (koff), according to the equation 1 (t1/2 = ln(2)/koff.)

[3] = target: T2, DCLK1-FL1Δ WT tubulin polymerisation activity (Homo sapiens, UniProt O15075); test: Tubulin polymerisation and pelleting assay with DCLK1-FL1Δ WT; format: biochemical; details: 20 and 40 μM (Supplementary Fig. 10c)
T2 construct: DCLK1-FL1Δ (residues 50-686); 8XHis tag with TEV protease cleavage site (N); made in house; host or cells: Escherichia coli C41(DE3)
T2 sequence (O15075 50-686 isoform O15075-2): T1 sequence (O15075 50-686 isoform O15075-2)
Method: (§1) Tubulin polymerisation assays were performed in buffer containing 80 mM PIPES at pH 6.9, 2.0 mM MgCl2, 0.5 mM EGTA, 2.5 mM β,γ-Methyleneguanosine 5’-triphosphate, and 10 μM tubulin and 5 μM DCLK1 for 1 h at 37 °C. For tubulin polymerisation in the presence of inhibitors, various concentrations of the inhibitors were first incubated with DCLK1 and allowed to stand on ice for 5 min before adding this mix to the tubulin polymerisation reaction. Following the tubulin polymerisation, the reaction mix was pelleted at 20,000 g for 20 min and the supernatant and the pellet fractions were run on a 12% SDS gel. The data shown are representative of two independent experiments.

tubulin = test: Tubulin polymerisation in the absence of DCLK1 (pelleting and fluorescence assays); format: biochemical; details: absence of DCLK1-FL1Δ D511N
Method: as §1
Tubulin polymerisation assay were performed using the Microtubule Polymerisation/Depolymerisation Fluorescence Kit (Cytoskeleton #BK011P) in accordance with the manufacturer’s instructions. DCLK1 (4 μΜ) was added to 50 μL tubulin reaction mix containing Buffer 1 (80 mM PIPES at pH 6.9, 2.0 mM MgCl2, 0.5 mM EGTA, 10 μM fluorescent reporter), guanosine triphosphate stock solution at 100 mM, and tubulin (10 mg/ml) stock solution, as described by the manufacturer. […] Polymerisation leads to fluorescence enhancement due to incorporation of a fluorescence reporter into polymerising microtubules and was measured by excitation at 355 nm and emission at 460 nm. Readings were taken every 20 s on EnVision Multimode Plate Reader. […]

## COc1cc(N2CCN(C)CC2)ccc1Nc1ncc2c(n1)N(C)c1ccccc1C(=O)N2CC(F)(F)F [DCLK1-IN-1]
DCLK1-FL1Δ WT [1]
  melting temperature change versus control compound DCLK1-NEG: increased
DCLK1-FL1Δ WT [2]
  kon, kinetic fitting: 6 ± 2 1/Ms (x 10^5)
DCLK1-FL1Δ WT [2]; read-out: KD, kinetic fitting (1:1 binding model)
  Kd: 83 ± 22 nM
DCLK1-FL1Δ WT [2]; read-out: KD, steady state fitting
  Kd: 145 ± 35 nM
DCLK1-FL1Δ WT [2]; read-out: koff, kinetic fitting
  koff: 0.04 ± 0.01 s⁻¹
[3]
  restoration of DCLK1-FL1Δ WT tubulin polymerisation activity: did not restore
tubulin
  tubulin polymerisation and stabilisation by compound alone: does not promote tubulin polymerisaton and stabilisation
